One test deals with IL-6. In words: LPS-stimulated whole bovine blood assay, MSD cytokine detection. Type of test: cell-based. As to conditions: Bos taurus, LPS-stimulated bovine whole blood; read-out: IL-6 (IC50 μM). The text has this:
In order to correlate RNA sequencing data to cytokine changes the whole blood assay was utilized. […] The enhancement result represents an overall stimulation of cytokine levels due to cellular stress or potential toxicity with increasing concentrations of the compound, representing a typical bell shape response curve for immunomodulatory activity.

Test [1] concerns BRD pathogens, M. haemolytica and P. multocida. In words: MIC screening panel of BRD pathogens (antibacterial / non-antibacterial). As to conditions: read-out: antibacterial / non-antibacterial (MIC for the BRD pathogens).
For another test, the system named is IL-1β. In words: LPS-stimulated whole bovine blood assay, MSD cytokine detection. As to conditions: overstimulation of IL-1β, LPS-stimulated bovine whole blood. In kind it is cell-based.
The next test concerns TNF-α. The description is as above. As to conditions: Bos taurus, LPS-stimulated bovine whole blood; read-out: TNF-α (IC50 μM). In kind it is cell-based.

On to `CC[C@H]1OC(=O)[C@H](C)[C@@H](O[C@H]2C[C@@](C)(OC)[C@](O)(CCl)[C@H](C)O2)[C@H](C)[C@@H](O[C@@H]2O[C@H](C)C[C@H](N(C)C(=O)N(C)c3ccccc3)[C@H]2O)[C@](C)(O)C[C@@H](C)CN[C@H](C)[C@@H](O)[C@]1(C)O` [Example E-2, 1-((2S,3R,4S,6R)-2-(((2R,3S,4R,5R,8R,10R,11R,12S,13S,14R)-13-(((2R,4R,5S,6S)-5-(chloromethyl)-5-hydroxy-4-methoxy-4,6-dimethyltetrahydro-2H-pyran-2-yl)oxy)-2-ethyl-3,4,10-trihydroxy-3,5,8,10,12,14-hexamethyl-15-oxo-1-oxa-6-azacyclopentadecan-11-yl)oxy)-3-hydroxy-6-methyltetrahydro-2H-pyran-4-yl)-1,3-dimethyl-3-phenylurea], for which the half-inhibitory concentration (IC50) was 35 µM in the test with IL-6 and 40 µM in the test with TNF-α. In test [1], the MIC is over 64 µg/mL. In addition, the “IL-1β OS of LPS” value in the test with IL-1β was 40 µM.

Turning to `CC[C@H]1OC(=O)[C@H](C)[C@@H](O[C@H]2C[C@@](C)(OC)[C@](O)(CN=[N+]=[N-])[C@H](C)O2)[C@H](C)[C@@H](O[C@@H]2O[C@H](C)C[C@H](N(C)C(=O)N(C)c3ccccc3)[C@H]2O)[C@](C)(O)C[C@@H](C)CN[C@H](C)[C@@H](O)[C@]1(C)O` [Example F-2, 1-((2S,3R,4S,6R)-2-(((2R,3S,4R,5R,8R,10R,11R,12S,13S,14R)-13-(((2R,4R,5S,6S)-5-(azidomethyl)-5-hydroxy-4-methoxy-4,6-dimethyltetrahydro-2H-pyran-2-yl)oxy)-2-ethyl-3,4,10-trihydroxy-3,5,8,10,12,14-hexamethyl-15-oxo-1-oxa-6-azacyclopentadecan-11-yl)oxy)-3-hydroxy-6-methyltetrahydro-2H-pyran-4-yl)-1,3-dimethyl-3-phenylurea], the IC50 in the test with IL-6 amounted to 30 µM; in the test on TNF-α it was 11 µM. Also, the MIC in test [1] was over 64 µg/mL. The “IL-1β OS of LPS” value in the test with IL-1β was determined as 40 µM.

`CC[C@H]1OC(=O)[C@H](C)[C@@H](O[C@H]2C[C@@](C)(OC)[C@](O)(CC#N)[C@H](C)O2)[C@H](C)[C@@H](O[C@@H]2O[C@H](C)C[C@H](N(C)C(=O)N(C)c3ccccc3)[C@H]2O)[C@](C)(O)C[C@@H](C)CN[C@H](C)[C@@H](O)[C@]1(C)O` [Example G-2, 1-((2S,3R,4S,6R)-2-(((2R,3S,4R,5R,8R,10R,11R,12S,13S,14R)-13-(((2R,4R,5S,6S)-5-(cyanomethyl)-5-hydroxy-4-methoxy-4,6-dimethyltetrahydro-2H-pyran-2-yl)oxy)-2-ethyl-3,4,10-trihydroxy-3,5,8,10,12,14-hexamethyl-15-oxo-1-oxa-6-azacyclopentadecan-11-yl)oxy)-3-hydroxy-6-methyltetrahydro-2H-pyran-4-yl)-1,3-dimethyl-3-phenylurea]: the IC50 with IL-6 was 70 µM; in the test with TNF-α, 80 µM. Moreover, the MIC in test [1] was over 64 µg/mL. For the same compound, the “IL-1β OS of LPS” value in the test with IL-1β amounted to 100 µM.

On to `CCCNC[C@]1(O)[C@H](C)O[C@@H](O[C@H]2[C@H](C)[C@@H](O[C@@H]3O[C@H](C)C[C@H](N(CCC)C(=O)N(C)c4ccc(C(F)(F)F)cc4)[C@H]3O)[C@](C)(O)C[C@@H](C)CN[C@H](C)[C@@H](O)[C@](C)(O)[C@@H](CC)OC(=O)[C@@H]2C)C[C@@]1(C)OC` [Example H-8, 1-((2S,3R,4S,6R)-2-(((2R,3S,4R,5R,8R,10R,11R,12S,13S,14R)-2-ethyl-3,4,10-trihydroxy-13-(((2R,4R,5S,6S)-5-hydroxy-4-methoxy-4,6-dimethyl-5-((propylamino)methyl)tetrahydro-2H-pyran-2-yl)oxy)-3,5,8,10,12,14-hexamethyl-15-oxo-1-oxa-6-azacyclopentadecan-11-yl)oxy)-3-hydroxy-6-methyltetrahydro-2H-pyran-4-yl)-3-methyl-1-propyl-3-(4-(trifluoromethyl)phenyl)urea], for which the half-inhibitory concentration (IC50) worked out at 5 µM with IL-6 and 6 µM with TNF-α. Also, the MIC in test [1] was over 64 µg/mL. For the same compound, the “IL-1β OS of LPS” value with IL-1β is 1 µM.

Take `CC[C@H]1OC(=O)[C@H](C)[C@@H](O[C@H]2C[C@@](C)(OC)[C@](O)(CNCC(C)C)[C@H](C)O2)[C@H](C)[C@@H](O[C@@H]2O[C@H](C)C[C@H](N(C)C(=O)N(C)c3ccccc3)[C@H]2O)[C@](C)(O)C[C@@H](C)CN[C@H](C)[C@@H](O)[C@]1(C)O` [Example H-24, 1-((2S,3R,4S,6R)-2-(((2R,3S,4R,5R,8R,10R,11R,12S,13S,14R)-2-ethyl-3,4,10-trihydroxy-13-(((2R,4R,5S,6S)-5-hydroxy-5-((isobutylamino)methyl)-4-methoxy-4,6-dimethyltetrahydro-2H-pyran-2-yl)oxy)-3,5,8,10,12,14-hexamethyl-15-oxo-1-oxa-6-azacyclopentadecan-11-yl)oxy)-3-hydroxy-6-methyltetrahydro-2H-pyran-4-yl)-1,3-dimethyl-3-phenylurea]: the IC50 came out at 30 µM in the test with IL-6 and 23 µM in the test with TNF-α. Besides, the MIC in test [1] is over 64 µg/mL. Also, the “IL-1β OS of LPS” value with IL-1β is 16 µM.

On to `CC[C@H]1OC(=O)[C@H](C)[C@@H](O[C@H]2C[C@@](C)(OC)[C@](O)(CNCCCn3ccnc3)[C@H](C)O2)[C@H](C)[C@@H](O[C@@H]2O[C@H](C)C[C@H](N(C)C(=O)N(C)c3ccccc3)[C@H]2O)[C@](C)(O)C[C@@H](C)CN[C@H](C)[C@@H](O)[C@]1(C)O` [Example H-25, 1-((2S,3R,4S,6R)-2-(((2R,3S,4R,5R,8R,10R,11R,12S,13S,14R)-13-(((2R,4R,5S,6S)-5-(((3-(1H-imidazol-1-yl)propyl)amino)methyl)-5-hydroxy-4-methoxy-4,6-dimethyltetrahydro-2H-pyran-2-yl)oxy)-2-ethyl-3,4,10-trihydroxy-3,5,8,10,12,14-hexamethyl-15-oxo-1-oxa-6-azacyclopentadecan-11-yl)oxy)-3-hydroxy-6-methyltetrahydro-2H-pyran-4-yl)-1,3-dimethyl-3-phenylurea], for which the IC50 came out at 22 µM with IL-6 and 19 µM with TNF-α. Also, the MIC in test [1] is over 64 µg/mL. Further, the “IL-1β OS of LPS” value in the test on IL-1β is 16 µM.

Regarding `CC[C@H]1OC(=O)[C@H](C)[C@@H](O[C@H]2C[C@@](C)(OC)[C@](O)(CNC3CC3)[C@H](C)O2)[C@H](C)[C@@H](O[C@@H]2O[C@H](C)C[C@H](N(C)C(=O)N(C)c3ccccc3)[C@H]2O)[C@](C)(O)C[C@@H](C)CN[C@H](C)[C@@H](O)[C@]1(C)O` [Example H-27, 1-((2S,3R,4S,6R)-2-(((2R,3S,4R,5R,8R,10R,11R,12S,13S,14R)-13-(((2R,4R,5S,6S)-5-((cyclopropylamino)methyl)-5-hydroxy-4-methoxy-4,6-dimethyltetrahydro-2H-pyran-2-yl)oxy)-2-ethyl-3,4,10-trihydroxy-3,5,8,10,12,14-hexamethyl-15-oxo-1-oxa-6-azacyclopentadecan-11-yl)oxy)-3-hydroxy-6-methyltetrahydro-2H-pyran-4-yl)-1,3-dimethyl-3-phenylurea], the results for the concentration for half-maximal inhibition (IC50) with IL-6 and with TNF-α were 17 µM and 8 µM, respectively. Besides, in test [1], the MIC is over 64 µg/mL. The “IL-1β OS of LPS” value in the test with IL-1β was found to be 16 µM.

The term IC50 denotes the concentration that inhibits the measured activity by half.

These data come from US12295936B2, “Immunomodulating urea azalides” (Zoetis Services LLC, priority 2020, dated 2025).
